The text below walks through data of publication PMC5589637, “New perspectives of cobalt tris(bipyridine) system: anti-cancer effect and its collateral sensitivity towards multidrug-resistant (MDR) cancers” (Oncotarget, 2017).

As a reminder, the IC50 is the point on the concentration scale where inhibition reaches its midpoint.

In assay [1] the test system is HeLa (cervical cancer) cells. Nature of the assay: MTT cytotoxicity assay, HeLa. Type of assay: cell-based. As to conditions: 72 h. The method, then: (§1) All tested compounds were dissolved in DMSO at a final concentration of 50 mmol/L and stored at −20°C before use. Cytotoxicity was assessed by using the 3-(4,5-dimethylthiazol-2-yl)-2, 5-diphenyltetrazolium bromide (MTT) (5.0 mg/ml) assay as previously described. Briefly, 4×10^3 cells per well were seeded in 96-well plates before drug treatments. After overnight culture, the cells were then exposed to different concentrations of selected compounds ([…]) for 72 hours. Cells without drug treatment were used as control. Subsequently, MTT (10 μL) solution was added to each well and incubated at 37°C for 4 hours followed by the addition of 100 μL solubilization buffer (10%SDS in 0.01 mol/L HCl) and overnight incubation. A570 nm was then determined in each well on the next day. The percentage of cell viability was calculated using the following formula: Cell viability (%) = Atreated/Acontrol × 100. Data were obtained from three independent experiments.

Assay [2] relates to MCF-7 (breast cancer) cells. Nature of the assay: MTT cytotoxicity assay, MCF-7. The class given is cell-based. As to conditions: MCF-7, MTT, 72 h. The method, then:
as §1
A general note: Formazan colour is commonly taken as a measure of viable cells.

Assay [3] concerns H1299 (lung cancer) cells. Nature of the assay: MTT cytotoxicity assay, H1299. Type of assay: cell-based, human. As to conditions: 72 h. How it is done:
as §1

The test system of assay [4] is H1975 (EGFR mutant lung cancer) cells. Nature of the assay: MTT cytotoxicity assay, H1975. Type of assay: cell-based. Conditions: 72 h. How it is done: as §1
Assay [5] relates to LLC-1 (mouse lung cancer) cells. Nature of the assay: MTT cytotoxicity assay, LLC-1. Conditions: LLC-1, MTT, 72 h. The class given is cell-based. The method, then: as §1
The subject of assay [6] is normal human LO2 hepatocytes. Nature of the assay: MTT cytotoxicity assay, LO2. Type of assay: cell-based. As to conditions: 72 h. How it is done:
as §1

Assay [7] has as its system MCF-7 taxol-sensitive cancer cells. Nature of the assay: MTT cytotoxicity, taxol-sensitive MCF-7. Type of assay: cell-based. As to conditions: 72 h.
Excerpt: (§2) All cells were obtained from the American Type Culture Collection (Rockville, MD, USA) unless otherwise specified. Immortalized wild-type and Atg7-deficient mouse embryonic fibroblasts (MEFs) were kindly provided by Professor Masaaki Komatsu (Juntendo University, School of Medicine, Japan). Taxol-resistant types of MCF-7, HCT-8, A549 cancers cells and cisplatin-resistant SGC7901 cancer cells were purchased from KeyGEN BioTECH, China. Cisplatin-sensitive or –resistant A2780, OV2008 and C13 cancer cells were kindly provided by Prof. Benjamin Tsang (Department of Obstetrics and Gynecology and Department of Cellular and Molecular Medicine, University of Ottawa, Canada). HCT116 p53^+/+ and p53^−/− isogenic human colon cancer cells were kindly provided by Professor Bert Vogelstein (Ludwig Center at Johns Hopkins, Howard Hughes Medical Institute, USA). All media were supplemented with 10% fetal bovine serum and antibiotics penicillin (50 U/ml) and streptomycin (50 μg/ml; Invitrogen, Paisley, Scotland, UK). All cell cultures were incubated at 37°C in a 5% humidified CO2 incubator.
as §1

The test system of assay [8] is MCF-7 taxol-resistant cancer cells. Nature of the assay: MTT cytotoxicity, taxol-resistant MCF-7. The class given is cell-based.
Excerpt: as §2, §1

Assay [9] has as its system A549 taxol-sensitive cancer cells. Nature of the assay: MTT cytotoxicity, taxol-sensitive A549. Type of assay: cell-based. Conditions: 72 h.
Excerpt: as §2, §1

The test system of assay [10] is A549 taxol-resistant cancer cells. Nature of the assay: MTT cytotoxicity, taxol-resistant A549. The class given is cell-based.
Excerpt: as §2, §1

The test system of assay [11] is A2780 cisplatin-sensitive cancer cells. Nature of the assay: MTT cytotoxicity, cisplatin-sensitive A2780. As to conditions: 72 h. Type of assay: cell-based.
Excerpt: as §2, §1

Assay [12] concerns C13 (cisplatin-resistant) cells. Nature of the assay: MTT cytotoxicity, C13 (cisplatin-resistant). Type of assay: cell-based.
Excerpt: as §2, §1

For assay [13], the system named is HCT116 p53^-/- colon cancer cells. Nature of the assay: MTT cytotoxicity, HCT116 p53-/-. Type of assay: cell-based, human.
Excerpt: as §2, §1

Assay [14] has as its system Atg7^−/− deficient MEFs. Nature of the assay: MTT cytotoxicity, Atg7 deficient MEFs. Type of assay: cell-based, mouse. As to conditions: 72 h.
Excerpt: as §2, with “All media were supplemented with 10% fetal bovine serum and antibiotics penicillin (50 U/ml) and streptomycin (50 μg/ml; Invitrogen, Paisley, Scotland, UK). All cell cultures were incubated at 37°C in a 5% humidified CO2 incubator.” left out
All tested compounds were dissolved in DMSO at a final concentration of 50 mmol/L and stored at −20°C before use. Cytotoxicity was assessed by using the 3-(4,5-dimethylthiazol-2-yl)-2, 5-diphenyltetrazolium bromide (MTT) (5.0 mg/ml) assay as previously described. […] A570 nm was then determined in each well on the next day. The percentage of cell viability was calculated using the following formula: Cell viability (%) = Atreated/Acontrol × 100. […]

The test system of assay [15] is HeLa cancer cells. Nature of the assay: Endogenous autophagy detection (LC3-II puncta immunofluorescence). The class given is cell-based. As to conditions: 24 h. The method, then: The detection of endogenous LC3 was conducted using immunofluorescence staining method as described below. In brief, cobalt complex 2-treated HeLa cancer cells on cover slips were fixed with 4% paraformaldehyde (Sigma) for 20 min at room temperature and then rinsed with PBS. Coverslips were immersed in methanol at room temperature for 2 min. After washing with PBS, the cells were then incubated with anti-LC3 (1:200) in TBST (100 mM Tris HCl, pH 7.5, 150 mM NaCl, 0.05% Tween 20 and 5% BSA) overnight at 4 °C. After washing with PBS, the cells were incubated with anti-mouse secondary antibody (TRITC) (1:200) in TBST containing 5% BSA at 37°C for 1 hour in the dark. The coverslips were then mounted with FluorSave™ mounting media (Calbiochem, San Diego, CA, USA) for fluorescence imaging and localization of LC3 autophagosomes were captured under the API Delta Vision Live-cell Imaging System (Applied Precision Inc.,GE Healthcare Company, Washington, USA). To quantify autophagy, guidelines were followed. The percentage of cells with autophagic induction was calculated by the number of the cells with increased formation of punctate LC3 fluorescence dots (≥ 10 dots/cell) over the total number of immunofluorescence-positive cells in the same field. A minimum of 1000 cells from randomly selected fields were scored.

Assay [16] concerns H1299 cell. Nature of the assay: Western blot of cell invasion markers MMP-9 and ICAM-1. As to conditions: 0.5 μM. Type of assay: cell-based, human. How it is done: Western blot analysis was carried out following standard methods. Cells were lysed with RIPA lysis buffer with protease and phosphatase inhibitor cocktails. Protein concentrations were determined using the Bio-Rad protein assay (Bio-Rad Laboratories, Inc., Hercules, CA, USA). After electrophoresis, the proteins from SDS/PAGE were electro-transferred to a Hybond enhanced chemiluminescence nitrocellulose membrane (Amersham Biosciences, NJ, USA), which was then blocked with 5% dried milk for 1 hour. After washing, the blot was incubated with the indicated primary antibodies overnight at 4°C. Detection was performed using appropriated HRP-conjugated secondary antibodies for 1 hour at RT followed by chemiluminescence (Invitrogen).
For orientation: A western blot detects proteins with antibodies after separation by electrophoresis.

Turning to `Cc1ccnc(-c2cc(C)ccn2)c1.Cc1ccnc(-c2cc(C)ccn2)c1.Cc1ccnc(-c2cc(C)ccn2)c1.F[P-](F)(F)(F)(F)F.F[P-](F)(F)(F)(F)F.F[P-](F)(F)(F)(F)F.[Co+3]` [complex 2, [Co^III(4,4’-Me2-bpy)3](PF6)3], the IC50 is 11.9 µM in [1]; 6.03 µM in [2]; 2.84 µM in [3]; 8.84 µM in assay [4]; 3.39 µM in [5]; 13.2 µM in [6]. Further, the IC50 in [7] amounted to 4 µM; in assay [8] (MCF-7 taxol-resistant, MTT, 72 h), 2.71 µM; in [9] it was 11.5 µM; in assay [10] (A549 taxol-resistant, MTT, 72 h), 2.85 µM; in assay [11], 12.3 µM; in assay [12] (C13 (cisplatin-resistant), MTT, 72 h, read-out: IC50 value, cisplatin-resistant cancer, C13), 7.59 µM. Besides, the IC50 stood at 9.07 µM in assay [13] (HCT116 p53-/-, MTT, 72 h) and 14 µM in [14]. For the same compound, the “Resistant Factor, MCF-7” value in assay [8] (IC50 of taxol-resistant cells over IC50 of taxol-sensitive cells, MCF-7) is 0.68. The “Resistant Factor, A549” value in assay [10] (IC50 of taxol-resistant cells over IC50 of taxol-sensitive cells, A549) was 0.25. In assay [12] (C13 (resistant) IC50 over OV2008 (sensitive) IC50), the “Resistant Factor, OV2008/C13 pair” value stood at 1.0. In assay [13] (IC50 p53-/- over IC50 p53+/+), the “Resistant Factor, HCT116 p53-/- vs p53+/+” value is given as 0.59. Besides, in assay [15], the “autophagy induction (percentage of cells with endogenous LC3-II puncta formation)” value is “induce autophagy in dose-dependent manner”. In addition, in [16], the “expression of MMP-9 and ICAM-1” value is “significantly downregulated”.
